Laboratory results from patent US11512074B2, “Substituted diamino heterocyclic carboxamide compound and a composition containing the compound and use thereof” (Shenzhen TargetRx, Inc., priority 2018, dated 2022).

Columns and labels:
MV-4-11 cells = test: Inhibition of cell MV-4-11 proliferation (CTG assay); format: cell-based; settings: Homo sapiens, MV4-11, 72 hours
Excerpt: Cell MV-4-11 (ATCC, Cat. No. CRL-9591), cell MOLM-13 (COBIOER, Cat. No. CBP60678), RPMI-1640 (GIBCO, Cat. No. A10491-01), penicillin-streptomycin (GIBCO, Cat. No. 15140-122), fetal bovine serum (GIBCO, Cat. No. 10099-141), phosphate buffer solution PBS (GIBCO, Cat. No. 10010-031), DMSO (Sigma, Cat. No. D8418-1L), CelltiterGlo Assay kit (CTG) (Promega, Cat. No. G7573), 96-well plate with transparent flat bottom and black walls (PerkinElmer, Cat. No. 6005680-50), plate shaker (QILINBEIER, Cat. No. B-9002), centrifuge (Eppendorf, Cat. No. 5804R), CO2 incubator (Thermo Scientific, Cat. No. 371), microscope (OLYMPUS Cat. No. CKX41), multi-plate reader (PerkinElmer, Cat. No. EnVision).
(2) Preparation of Cell Suspension • a) The medium was collected from the culture bottle and centrifuged at 1000 rpm for 5 min. • b) The supernatant was discarded, and the cells were resuspended in medium containing 10% fetal bovine serum, and counted to prepare a cell suspension (cell viability was greater than 90%). • c) The cell suspension was added into a 96-well plate, with […] in each well, namely 5000 MV-4-11 cells/well; 5000 MOLM-13 cells/well. • d) The cell plate was cultured overnight in a 37° C., 5% CO2 incubator.
Dilution of Compounds in DMSO: • a) MV-4-11 cells: The compounds were diluted with DMSO from 10 mM to 60 uM, and then subjected to a 3-fold serial gradient dilution in DMSO from 60 uM, resulting in 9 concentrations. • b) MOLM-13 cells: The compounds were diluted with DMSO from 10 mM to 200 uM, and then subjected to a 3-fold serial gradient dilution in DMSO from 200 uM, resulting in 9 concentrations. • c) Compound Taxol was diluted with DMSO from 10 mM to 200 uM, and then subjected to a 3-fold serial gradient dilution in DMSO from 200 uM, resulting in 9 concentrations.
(4) Treatment of Cells with Compounds (after the Overnight Incubation of the Cell Plate) • a) Each well was replenished with 99 μl of growth medium containing 10% FBS, and then 1 μl of the diluted compound was added to the well. The concentration of DMSO was 0.5%. • b) Concentrations of the tested compounds were: MV-4-11 cells: 300, 100, 33.3, 11.1, 3.7, 1.23, 0.41, 0.137, 0.046, 0 [nM]. • MOLM-13 cells: 1000, 333.3, 111.1, 37.04, 12.35, 4.1, 1.37, 0.46, 0.15, 0 [nM]. • c) Concentrations of control compound Taxol were: 1000, 333.3, 111.1, 37.04, 12.35, 4.12, 1.37, 0.46, 0.15, 0 [nM]. • d) The cell plate was placed in the incubator for 72 hours.
(5) CTG Assay • a) The test plate was placed at room temperature and equilibrated for 30 minutes, and 60 μl of the culture medium was discarded. • b) 60 μl of CTG reagent (CelltiterGlo kit) was added, and the plate was placed on a rapid plate shaker to shake for 2 min, and then let it stand at room temperature for 20 min. • c) Envision was used to read the values.
IC50 values were calculated using GraphPad Prism 6 software. The IC50 (half inhibitory concentration) values of the compounds were obtained by the following non-linear fitting formula. Y=Bottom+(Top−Bottom)/(1+10^((Log IC50−X)*HillSlope)) • X: Log value of the compound concentration • Y: Inhibition rate (% inhibition) % inhibition (inhibition rate)=100*(value of the High Control-value of the test compound well)/(value of the High Control-value of the Low Control)

Ba/F3 parental cells = test: Inhibition of Ba/F3 parental cell proliferation (CTG); format: cell-based; settings: Mus musculus, BaF3, 72 hours, with IL-3
Description: Cell lines were cultured under the condition of 37° C., 5% CO2 and 95% humidity: cell line Ba/F3 parental (suspended, 3000 cells/well, medium was RPMI-1640+10% FBS+8 ng/ml IL-3), cell line Ba/F3 FLT3-ITD (suspended, 3000 cells/well, medium was RPMI-1640+10% FBS)
Reagents and materials: Fetal bovine serum (FBS, GBICO, Cat. No. 10099-141), CellTiter-Glo® Luminescent Cell Viability Assay (Promega, Cat. No. G7572), 96-well plate with transparent flat bottom and black walls (Corning®, Cat. No. 3603), control compound AC220 (Selleck, Cat. No. S1526).
Cell Culture and Inoculation: • 1. Cells in the logarithmic growth phase were harvested and counted using a platelet counter. The cell viability was determined by trypan blue exclusion method to ensure that the cell viability was greater than 90%; • 2. The cell concentration was adjusted and 90 μL of the cell suspension was added into a 96-well plate respectively; • 3. The cells in the 96-well plate were cultured overnight under the condition of 37° C., 5% CO2 and 95% humidity.
Drug Dilution and Dosing: • 1. The 10-fold drug solutions were prepared with a maximum concentration of 100 μM, which was diluted using a 3.16-fold serial gradient dilution, resulting in 9 concentrations. 10 μL of the drug solutions was added to each well of the 96-well plate inoculated with Ba/F3 parental cells; and each drug concentration was set in triplicate. • 2. The 10-fold drug solutions were prepared with a maximum concentration of 10 μM, which was diluted using a 3.16-fold serial gradient dilution, resulting in 9 concentrations. 10 μL of the drug solutions was added to each well of the 96-well plate inoculated with Ba/F3 FLT3-ITD cells; and each drug concentration was set in triplicate. • 3. The cells in the 96-well plate with drugs were cultured at 37° C., 5% CO2 and 95% humidity for 72 hours, and then CTG analysis was carried out.
Plate Reading at the End Point: • 1. CTG reagent was thawed and the cell plate was equilibrated to room temperature for 30 minutes; • 2. Equal volume of the CTG solution was added to each well; • 3. The cell plate was shaked on the orbital shaker for 5 minutes to lyse the cells; • 4. The cell plate was placed at room temperature for 20 minutes to stabilize the cold light signal; • 5. The cold light values were read.
GraphPad Prism 8.0 software was used to analyze the data, and the data was fitted using the non-linear S-curve regression to get a dose-effect curve, and IC50 values were calculated. Cell viability (%)=(Lum of test drug−Lum of medium control)/(Lum of cell control−Lum of medium control)×100%.

[2H]C([2H])([2H])N1CCN(C2CCN(c3ccc(Nc4nc(NC5CCOCC5)c(CC)nc4C(N)=O)cc3OC)CC2)CC1 [Compound T-2, 6-ethyl-3-((3-methoxy-4-(4-(4-(methyl-d3)piperazin-1-yl)piperidin-1-yl)phenyl)amino)-5-((tetrahydro-2H-pyran-4-yl)amino)pyrazine-2-carboxamide]
IC50 (MV-4-11 cells): 2.35 nM
IC50 (Ba/F3 parental cells): 7160 nM

[2H]C([2H])([2H])Oc1cc(Nc2nc(NC3CCOCC3)c(CC)nc2C(N)=O)ccc1N1CCC(N2CCN(C([2H])([2H])[2H])CC2)CC1 [Compound T-3, 6-ethyl-3-((3-(methoxy-d3)-4-(4-(4-(methyl-d3)piperazin-1-yl)piperidin-1-yl)phenyl)amino)-5-((tetrahydro-2H-pyran-4-yl)amino)pyrazine-2-carboxamide]
IC50 (MV-4-11 cells): 2.25 nM
IC50 (Ba/F3 parental cells): 5370 nM

[2H]C([2H])([2H])Oc1cc(Nc2nc(NC3CCOCC3)c(CC)nc2C(N)=O)ccc1N1CCC(N2CCN(C)CC2)CC1 [Compound T-1, 6-ethyl-3-((3-(methoxy-d3)-4-(4-(4-methylpiperazin-1-yl)piperidin-1-yl)phenyl)amino)-5-((tetrahydro-2H-pyran-4-yl)amino)pyrazine-2-carboxamide]
IC50 (MV-4-11 cells): 2.17 nM
IC50 (Ba/F3 parental cells): 9720 nM

CCc1nc(C(N)=O)c(Nc2ccc(N3CCC(N4CCN(C)CC4)CC3)c(OC)c2)nc1NC1CCOCC1 [Gilteritinib, 6-ethyl-3-((3-methoxy-4-(4-(4-methylpiperazin-1-yl)piperidin-1-yl)phenyl)amino)-5-((tetrahydro-2H-pyran-4-yl)amino)pyrazine-2-carboxamide, reference compound]
IC50 (MV-4-11 cells): 2.23 nM

[2H]C1([2H])N(C)C([2H])([2H])C([2H])([2H])N(C2CCN(c3ccc(Nc4nc(NC5CCOCC5)c(CC)nc4C(N)=O)cc3OC)CC2)C1([2H])[2H] [Compound T-8, 6-ethyl-3-((3-methoxy-4-(4-(4-methylpiperazin-1-yl-2,2,3,3,5,5,6,6-d8)piperidin-1-yl)phenyl)amino)-5-((tetrahydro-2H-pyran-4-yl)amino)pyrazine-2-carboxamide]
IC50 (MV-4-11 cells): 2.17 nM
IC50 (Ba/F3 parental cells): 6870 nM

[2H]C([2H])([2H])N1CCN(C2CCN(c3ccc(Nc4nc(NC5CCOCC5)c(C([2H])([2H])C([2H])([2H])[2H])nc4C(N)=O)cc3OC)CC2)CC1 [Compound T-5, 6-(ethyl-d5)-3-((3-methoxy-4-(4-(4-(methyl-d3)piperazin-1-yl)piperidin-1-yl)phenyl)amino)-5-((tetrahydro-2H-pyran-4-yl)amino)pyrazine-2-carboxamide]
IC50 (MV-4-11 cells): 2.01 nM
IC50 (Ba/F3 parental cells): 9290 nM

[2H]C([2H])([2H])N1C([2H])([2H])C([2H])([2H])N(C2CCN(c3ccc(Nc4nc(NC5CCOCC5)c(CC)nc4C(N)=O)cc3OC)CC2)C([2H])([2H])C1([2H])[2H] [Compound T-9, 6-ethyl-3-((3-methoxy-4-(4-(4-(methyl-d3)piperazin-1-yl-2,2,3,3,5,5,6,6-d8)piperidin-1-yl)phenyl)amino)-5-((tetrahydro-2H-pyran-4-yl)amino)pyrazine-2-carboxamide]
IC50 (MV-4-11 cells): 2.03 nM
IC50 (Ba/F3 parental cells): > 10000 nM
